Reference: patent publication US9969694B2, “N-(arylalkyl)-N′-pyrazolyl-urea, thiourea, guanidine and cyanoguanidine compounds as TrkA kinase inhibitors” (Array BioPharma Inc., priority 2012, dated 2018)

Columns and labels:
Experiment in all cases: Off-Target Kinase Profiling
Format in all cases: biochemical
Conditions in all cases: 10 μM; ATP near Km
EphB4 = biological target: T1, EphB4 (Homo sapiens, UniProt P54760)
T1 construct: purchased Millipore, Inc. (KinaseProfiler service)
Method: (§1) Representative compounds of the invention (Examples 33 and 10) were tested for off-target kinase activity at a concentration of 10 μM by Millipore, Inc. in their KinaseProfiler™ service against all the kinases available in their full kinase panel. Compounds were run in duplicate at a concentration of ATP near the Km for each individual kinase according to Millipore's specifications. The results are shown in Table B. Data are reported as percent of control (POC) and are the average of the two replicates.

JNK2alpha2 = biological target: T2, JNK2alpha2 (Homo sapiens, UniProt P45984)
T2 construct: purchased Millipore, Inc. (KinaseProfiler service)
Method: as §1

DRAK1 = biological target: T3, DRAK1 (Homo sapiens, UniProt Q9UEE5)
T3 construct: purchased Millipore, Inc. (KinaseProfiler service)
Method: as §1

Met = biological target: T4, Met (Homo sapiens, UniProt P08581)
T4 construct: purchased Millipore, Inc. (KinaseProfiler service)
Method: as §1

Fer = biological target: T5, Fer (Homo sapiens, UniProt P16591)
T5 construct: purchased Millipore, Inc. (KinaseProfiler service)
Method: as §1

EphB1 = biological target: T6, EphB1 (Homo sapiens, UniProt P54762)
T6 construct: purchased Millipore, Inc. (KinaseProfiler service)
Method: as §1

CAMK1 = biological target: T7, CAMK1 (Homo sapiens, UniProt Q14012)
T7 construct: purchased Millipore (KinaseProfiler service)
Method: as §1

SGK3 = biological target: T8, SGK3 (Homo sapiens, UniProt Q96BR1)
T8 construct: purchased Millipore, Inc. (KinaseProfiler service)
Method: as §1

PDGFRalpha = biological target: T9, PDGFRalpha (Homo sapiens, UniProt P16234)
T9 construct: purchased Millipore, Inc. (KinaseProfiler service)
Method: as §1

FGFR3 = biological target: T10, FGFR3 (Homo sapiens, UniProt P22607)
T10 construct: purchased Millipore, Inc. (KinaseProfiler service)
Method: as §1

AKT1 = biological target: T11, AKT1 (Homo sapiens, UniProt P31749)
T11 construct: purchased Millipore (KinaseProfiler service)
Method: as §1

EphA7 = biological target: T12, EphA7 (Homo sapiens, UniProt Q15375)
T12 construct: purchased Millipore, Inc. (KinaseProfiler service)
Method: as §1

RIPK2 = biological target: T13, RIPK2 (Homo sapiens, UniProt O43353)
T13 construct: purchased Millipore, Inc. (KinaseProfiler service)
Method: as §1

DYRK2 = biological target: T14, DYRK2 (Homo sapiens, UniProt Q92630)
T14 construct: purchased Millipore, Inc. (KinaseProfiler service)
Method: as §1

MAP4K2 = biological target: T15, MAP4K2 (Homo sapiens, UniProt Q12851)
T15 construct: purchased Millipore, Inc. (KinaseProfiler service)
Method: as §1

NLK = biological target: T16, NLK (Homo sapiens, UniProt Q9UBE8)
T16 construct: purchased Millipore, Inc. (KinaseProfiler service)
Method: as §1

ErbB4 = biological target: T17, ErbB4 (Homo sapiens, UniProt Q15303)
T17 construct: purchased Millipore, Inc. (KinaseProfiler service)
Method: as §1

PKD2 = biological target: T18, PKD2 (Homo sapiens, UniProt Q9BZL6)
T18 construct: purchased Millipore, Inc. (KinaseProfiler service)
Method: as §1

SRPK1 = biological target: T19, SRPK1 (Homo sapiens, UniProt Q96SB4)
T19 construct: purchased Millipore, Inc. (KinaseProfiler service)
Method: as §1

MARK1 = biological target: T20, MARK1 (Homo sapiens, UniProt Q9P0L2)
T20 construct: purchased Millipore, Inc. (KinaseProfiler service)
Method: as §1

HIPK2 = biological target: T21, HIPK2 (Homo sapiens, UniProt Q9H2X6)
T21 construct: purchased Millipore, Inc. (KinaseProfiler service)
Method: as §1

NEK11 = biological target: T22, NEK11 (Homo sapiens, UniProt Q8NG66)
T22 construct: purchased Millipore, Inc. (KinaseProfiler service)
Method: as §1

Ros = biological target: T23, Ros (Homo sapiens, UniProt P08922)
T23 construct: purchased Millipore, Inc. (KinaseProfiler service)
Method: as §1

FAK2 = biological target: T24, FAK2 (Homo sapiens, UniProt Q14289)
T24 construct: purchased Millipore, Inc. (KinaseProfiler service)
Method: as §1

Lck = biological target: T25, Lck (Homo sapiens, UniProt P06239)
T25 construct: purchased Millipore, Inc. (KinaseProfiler service)
Method: as §1

ULK3 = biological target: T26, ULK3 (Homo sapiens, UniProt Q6PHR2)
T26 construct: purchased Millipore, Inc. (KinaseProfiler service)
Method: as §1

PKCzeta = biological target: T27, PKCzeta (Homo sapiens, UniProt Q05513)
T27 construct: purchased Millipore, Inc. (KinaseProfiler service)
Method: as §1

MSK1 = biological target: T28, MSK1 (Homo sapiens, UniProt O75582)
T28 construct: purchased Millipore, Inc. (KinaseProfiler service)
Method: as §1

PRK2 = biological target: T29, PRK2 (Homo sapiens, UniProt Q16513)
T29 construct: purchased Millipore, Inc. (KinaseProfiler service)
Method: as §1

EGFR = biological target: T30, EGFR (Homo sapiens, UniProt P00533)
T30 construct: purchased Millipore, Inc. (KinaseProfiler service)
Method: as §1

CDK2/cyclinE = biological target: T31, CDK2/cyclinE (Homo sapiens, UniProt P24941)
T31 construct: purchased Millipore, Inc. (KinaseProfiler service)
Method: as §1

Hck = biological target: T32, Hck (Homo sapiens, UniProt P08631)
T32 construct: purchased Millipore, Inc. (KinaseProfiler service)
Method: as §1

PKCbetaII = biological target: T33, PKCbetaII (Homo sapiens, UniProt P05771)
T33 construct: purchased Millipore, Inc. (KinaseProfiler service)
Method: as §1

NEK7 = biological target: T34, NEK7 (Homo sapiens, UniProt Q8TDX7)
T34 construct: purchased Millipore, Inc. (KinaseProfiler service)
Method: as §1

FGFR4 = biological target: T35, FGFR4 (Homo sapiens, UniProt P22455)
T35 construct: purchased Millipore, Inc. (KinaseProfiler service)
Method: as §1

TrkA = biological target: T36, TrkA (Homo sapiens, UniProt P04629)
T36 construct: purchased Millipore, Inc. (KinaseProfiler service)
Method: as §1

NEK6 = biological target: T37, NEK6 (Homo sapiens, UniProt Q9HC98)
T37 construct: purchased Millipore, Inc. (KinaseProfiler service)
Method: as §1

IKKalpha = biological target: T38, IKKalpha (Homo sapiens, UniProt O15111)
T38 construct: purchased Millipore, Inc. (KinaseProfiler service)
Method: as §1

CAMK2g = biological target: T39, CAMK2g (Homo sapiens, UniProt Q13555)
T39 construct: purchased Millipore (KinaseProfiler service)
Method: as §1

MST3 = biological target: T40, MST3 (Homo sapiens, UniProt Q9Y6E0)
T40 construct: purchased Millipore, Inc. (KinaseProfiler service)
Method: as §1

mTOR = biological target: T41, mTOR (Homo sapiens, UniProt P42345)
T41 construct: purchased Millipore, Inc. (KinaseProfiler service)
Method: as §1

T40 sequence (Q9Y6E0 whole entry): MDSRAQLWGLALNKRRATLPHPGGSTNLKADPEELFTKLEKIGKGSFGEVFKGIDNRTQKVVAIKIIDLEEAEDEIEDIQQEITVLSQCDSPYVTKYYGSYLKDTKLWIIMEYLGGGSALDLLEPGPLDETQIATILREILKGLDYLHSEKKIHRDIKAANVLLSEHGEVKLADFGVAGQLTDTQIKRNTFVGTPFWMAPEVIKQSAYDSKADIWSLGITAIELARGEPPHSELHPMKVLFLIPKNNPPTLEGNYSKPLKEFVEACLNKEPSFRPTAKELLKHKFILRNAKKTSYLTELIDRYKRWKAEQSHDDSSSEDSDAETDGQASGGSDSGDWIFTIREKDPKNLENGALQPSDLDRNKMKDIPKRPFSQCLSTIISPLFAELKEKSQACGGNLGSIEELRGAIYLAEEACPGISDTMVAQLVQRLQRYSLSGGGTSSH
T39 sequence (Q13555 whole entry): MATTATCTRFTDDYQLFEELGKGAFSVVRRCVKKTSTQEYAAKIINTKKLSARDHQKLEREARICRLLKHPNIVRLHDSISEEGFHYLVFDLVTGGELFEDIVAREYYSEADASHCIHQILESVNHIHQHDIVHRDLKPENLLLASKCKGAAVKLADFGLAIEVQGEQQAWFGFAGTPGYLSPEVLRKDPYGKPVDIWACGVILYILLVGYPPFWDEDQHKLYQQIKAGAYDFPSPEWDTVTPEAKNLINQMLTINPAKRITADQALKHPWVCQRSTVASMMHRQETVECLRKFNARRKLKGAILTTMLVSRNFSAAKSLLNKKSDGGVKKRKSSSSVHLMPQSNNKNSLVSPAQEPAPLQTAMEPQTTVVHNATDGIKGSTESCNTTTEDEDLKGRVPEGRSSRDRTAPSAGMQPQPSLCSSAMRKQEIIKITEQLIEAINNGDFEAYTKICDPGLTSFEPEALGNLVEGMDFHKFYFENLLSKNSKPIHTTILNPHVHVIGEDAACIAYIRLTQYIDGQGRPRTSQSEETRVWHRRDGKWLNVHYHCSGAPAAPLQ
T10 sequence (P22607 23-806): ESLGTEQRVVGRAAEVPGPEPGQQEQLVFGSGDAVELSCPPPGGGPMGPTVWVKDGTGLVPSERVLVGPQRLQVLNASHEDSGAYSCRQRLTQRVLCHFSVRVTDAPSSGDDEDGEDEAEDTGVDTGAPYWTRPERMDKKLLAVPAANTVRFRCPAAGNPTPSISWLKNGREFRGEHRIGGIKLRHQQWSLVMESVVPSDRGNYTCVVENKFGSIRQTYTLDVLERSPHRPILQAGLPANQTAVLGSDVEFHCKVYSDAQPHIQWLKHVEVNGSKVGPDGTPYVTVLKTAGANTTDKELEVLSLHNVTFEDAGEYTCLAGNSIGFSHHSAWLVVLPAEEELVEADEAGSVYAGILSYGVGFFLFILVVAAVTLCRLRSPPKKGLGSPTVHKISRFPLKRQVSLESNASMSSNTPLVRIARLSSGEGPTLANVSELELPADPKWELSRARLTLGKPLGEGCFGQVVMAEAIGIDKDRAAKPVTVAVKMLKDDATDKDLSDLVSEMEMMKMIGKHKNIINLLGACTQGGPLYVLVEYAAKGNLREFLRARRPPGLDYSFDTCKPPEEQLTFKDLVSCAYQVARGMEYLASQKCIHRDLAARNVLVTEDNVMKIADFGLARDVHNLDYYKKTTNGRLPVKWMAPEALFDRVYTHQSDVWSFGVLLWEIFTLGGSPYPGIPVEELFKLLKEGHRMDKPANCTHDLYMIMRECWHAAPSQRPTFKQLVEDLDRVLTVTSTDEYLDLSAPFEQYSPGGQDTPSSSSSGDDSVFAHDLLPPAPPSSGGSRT
T13 sequence (O43353 whole entry): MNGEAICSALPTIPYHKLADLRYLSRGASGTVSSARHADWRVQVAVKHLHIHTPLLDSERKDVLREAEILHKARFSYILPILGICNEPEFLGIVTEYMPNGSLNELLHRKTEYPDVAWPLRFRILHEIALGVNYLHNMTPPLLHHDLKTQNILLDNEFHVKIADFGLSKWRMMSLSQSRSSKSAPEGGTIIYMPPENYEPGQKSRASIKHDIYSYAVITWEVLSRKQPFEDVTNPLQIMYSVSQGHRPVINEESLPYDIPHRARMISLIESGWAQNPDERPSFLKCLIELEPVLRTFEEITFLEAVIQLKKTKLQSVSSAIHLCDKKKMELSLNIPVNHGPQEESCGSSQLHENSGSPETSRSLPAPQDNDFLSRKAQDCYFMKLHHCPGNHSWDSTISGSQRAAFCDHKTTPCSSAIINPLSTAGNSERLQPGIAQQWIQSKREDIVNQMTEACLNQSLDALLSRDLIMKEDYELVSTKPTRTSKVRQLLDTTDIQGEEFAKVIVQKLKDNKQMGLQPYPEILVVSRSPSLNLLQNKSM
T29 sequence (Q16513 whole entry): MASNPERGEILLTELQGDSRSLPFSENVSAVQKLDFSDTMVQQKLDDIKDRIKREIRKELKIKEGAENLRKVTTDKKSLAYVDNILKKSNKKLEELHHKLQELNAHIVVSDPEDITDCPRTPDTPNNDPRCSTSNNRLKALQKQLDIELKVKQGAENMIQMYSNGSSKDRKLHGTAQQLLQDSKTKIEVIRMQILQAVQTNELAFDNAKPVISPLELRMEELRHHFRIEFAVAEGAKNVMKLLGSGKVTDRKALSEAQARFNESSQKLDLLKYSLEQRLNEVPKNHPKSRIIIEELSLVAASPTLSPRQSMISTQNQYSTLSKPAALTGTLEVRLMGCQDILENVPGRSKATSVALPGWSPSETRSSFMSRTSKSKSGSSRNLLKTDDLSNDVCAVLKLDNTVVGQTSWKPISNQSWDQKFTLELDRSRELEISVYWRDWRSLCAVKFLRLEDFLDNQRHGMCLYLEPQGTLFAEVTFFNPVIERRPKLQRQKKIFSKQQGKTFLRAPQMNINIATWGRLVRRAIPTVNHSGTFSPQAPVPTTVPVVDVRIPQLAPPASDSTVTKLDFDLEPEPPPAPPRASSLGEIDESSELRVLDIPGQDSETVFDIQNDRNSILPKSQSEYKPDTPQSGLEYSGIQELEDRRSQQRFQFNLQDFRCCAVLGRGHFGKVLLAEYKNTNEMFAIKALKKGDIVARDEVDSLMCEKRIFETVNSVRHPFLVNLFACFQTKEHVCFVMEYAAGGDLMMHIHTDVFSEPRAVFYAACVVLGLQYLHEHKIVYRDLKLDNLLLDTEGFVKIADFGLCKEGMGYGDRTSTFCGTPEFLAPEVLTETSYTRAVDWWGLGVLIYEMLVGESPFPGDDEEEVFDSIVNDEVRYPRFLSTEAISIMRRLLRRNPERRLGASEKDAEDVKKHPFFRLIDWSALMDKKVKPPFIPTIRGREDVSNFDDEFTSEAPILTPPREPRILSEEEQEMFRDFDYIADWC
T25 sequence (P06239 whole entry): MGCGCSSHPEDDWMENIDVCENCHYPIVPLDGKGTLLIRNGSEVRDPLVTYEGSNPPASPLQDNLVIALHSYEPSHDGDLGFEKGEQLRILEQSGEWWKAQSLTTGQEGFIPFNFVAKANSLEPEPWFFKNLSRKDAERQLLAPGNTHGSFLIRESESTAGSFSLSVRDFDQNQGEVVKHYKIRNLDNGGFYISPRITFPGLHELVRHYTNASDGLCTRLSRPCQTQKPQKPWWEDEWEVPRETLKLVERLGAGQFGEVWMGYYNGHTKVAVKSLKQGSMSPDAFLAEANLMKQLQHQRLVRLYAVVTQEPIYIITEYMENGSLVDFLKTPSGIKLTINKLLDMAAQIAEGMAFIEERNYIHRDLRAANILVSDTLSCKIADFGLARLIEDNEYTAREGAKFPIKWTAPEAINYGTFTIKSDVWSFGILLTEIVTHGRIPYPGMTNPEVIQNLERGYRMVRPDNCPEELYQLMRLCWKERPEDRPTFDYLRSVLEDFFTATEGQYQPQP
T35 sequence (P22455 22-802): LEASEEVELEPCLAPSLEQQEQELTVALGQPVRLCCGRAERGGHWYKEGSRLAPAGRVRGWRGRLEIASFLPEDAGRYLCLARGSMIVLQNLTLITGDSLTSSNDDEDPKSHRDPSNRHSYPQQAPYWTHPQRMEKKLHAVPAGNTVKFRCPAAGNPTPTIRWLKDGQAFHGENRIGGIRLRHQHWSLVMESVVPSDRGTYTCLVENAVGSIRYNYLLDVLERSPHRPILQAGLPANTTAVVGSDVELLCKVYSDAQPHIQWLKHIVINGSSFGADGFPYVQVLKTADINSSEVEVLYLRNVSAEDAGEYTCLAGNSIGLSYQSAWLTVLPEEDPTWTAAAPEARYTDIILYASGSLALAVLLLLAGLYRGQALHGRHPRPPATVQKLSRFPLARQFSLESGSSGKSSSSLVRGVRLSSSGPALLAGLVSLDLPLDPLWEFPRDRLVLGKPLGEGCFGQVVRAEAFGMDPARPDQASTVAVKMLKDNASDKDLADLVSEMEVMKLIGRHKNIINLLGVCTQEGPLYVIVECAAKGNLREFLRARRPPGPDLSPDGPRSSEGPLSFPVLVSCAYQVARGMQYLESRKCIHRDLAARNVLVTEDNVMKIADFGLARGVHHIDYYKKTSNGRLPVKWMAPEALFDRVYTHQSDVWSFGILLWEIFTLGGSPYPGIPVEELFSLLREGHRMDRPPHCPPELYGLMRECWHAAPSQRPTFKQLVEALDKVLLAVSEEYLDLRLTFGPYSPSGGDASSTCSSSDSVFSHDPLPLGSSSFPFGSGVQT
T37 sequence (Q9HC98 whole entry): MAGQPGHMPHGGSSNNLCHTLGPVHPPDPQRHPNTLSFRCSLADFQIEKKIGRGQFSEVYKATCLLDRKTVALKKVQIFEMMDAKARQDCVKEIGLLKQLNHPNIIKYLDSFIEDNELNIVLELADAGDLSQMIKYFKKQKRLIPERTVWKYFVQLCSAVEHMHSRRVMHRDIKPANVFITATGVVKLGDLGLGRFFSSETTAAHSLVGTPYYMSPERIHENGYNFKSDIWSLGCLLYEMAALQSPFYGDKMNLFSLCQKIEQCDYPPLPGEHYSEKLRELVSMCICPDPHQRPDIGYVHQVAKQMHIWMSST

COCc1ccc(C(F)(F)F)c(CNC(=O)Nc2c(C)c(-c3cnn(C)c3)nn2-c2ccccc2)c1 [Example 33, 1-(1′,4-dimethyl-1-phenyl-1H,1′H-[3,4′-bipyrazol]-5-yl)-3-(5-(methoxymethyl)-2-(trifluoromethyl)benzyl)urea]
Avg POC EphB4 (EphB4): 128 POC | Avg POC JNK2alpha2 (JNK2alpha2): 89.5 POC | Avg POC DRAK1 (DRAK1): 141.5 POC | Avg POC Met (Met): 122.5 POC | Avg POC Fer (Fer): 90.5 POC | Avg POC EphB1 (EphB1): 133 POC | Avg POC CAMK1 (CAMK1): 111.5 POC | Avg POC SGK3 (SGK3): 150 POC | Avg POC PDGFRalpha (PDGFRalpha): 126.5 POC | Avg POC FGFR3 (FGFR3): 116 POC | Avg POC AKT1 (AKT1): 132 POC | Avg POC EphA7 (EphA7): 94.5 POC | Avg POC RIPK2 (RIPK2): 98.5 POC | Avg POC DYRK2 (DYRK2): 91.5 POC | Avg POC MAP4K2 (MAP4K2): 115.5 POC | Avg POC NLK (NLK): 121 POC | Avg POC ErbB4 (ErbB4): 130.5 POC | Avg POC PKD2 (PKD2): 106 POC | Avg POC SRPK1 (SRPK1): 113.5 POC | Avg POC MARK1 (MARK1): 109.5 POC | Avg POC HIPK2 (HIPK2): 95 POC | Avg POC NEK11 (NEK11): 108 POC | Avg POC Ros (Ros): 100.5 POC | Avg POC FAK2 (FAK2): 108 POC | Avg POC Lck (Lck): 93 POC | Avg POC ULK3 (ULK3): 99.5 POC | Avg POC PKCzeta (PKCzeta): 99 POC | Avg POC MSK1 (MSK1): 147 POC | Avg POC PRK2 (PRK2): 106 POC | Avg POC EGFR (EGFR): 116.5 POC | Avg POC CDK2/cyclinE (CDK2/cyclinE): 115.5 POC | Avg POC Hck (Hck): 140 POC | Avg POC PKCbetaII (PKCbetaII): 96 POC | Avg POC NEK7 (NEK7): 116.5 POC | Avg POC FGFR4 (FGFR4): 201.5 POC | Avg POC TrkA (TrkA): −1 POC | Avg POC NEK6 (NEK6): 115.5 POC | Avg POC IKKalpha (IKKalpha): 137.5 POC | Avg POC CAMK2g (CAMK2g): 112 POC | Avg POC MST3 (MST3): 126.5 POC | Avg POC mTOR (mTOR): 99 POC

COCc1ccc(C2CCC2)c(CNC(=O)Nc2c(C)c(-c3cnc(C)nc3)nn2-c2ccccc2)c1 [Example 10, 1-(2-cyclobutyl-5-(methoxymethyl)benzyl)-3-(4-methyl-3-(2-methylpyrimidin-5-yl)-1-phenyl-1H-pyrazol-5-yl)urea]
Avg POC EphB4 (EphB4): 140.5 POC | Avg POC JNK2alpha2 (JNK2alpha2): 81.5 POC | Avg POC DRAK1 (DRAK1): 92.5 POC | Avg POC Met (Met): 117 POC | Avg POC Fer (Fer): 96.5 POC | Avg POC EphB1 (EphB1): 131 POC | Avg POC CAMK1 (CAMK1): 92 POC | Avg POC SGK3 (SGK3): 92.5 POC | Avg POC PDGFRalpha (PDGFRalpha): 102 POC | Avg POC FGFR3 (FGFR3): 104 POC | Avg POC AKT1 (AKT1): 105 POC | Avg POC EphA7 (EphA7): 92.5 POC | Avg POC RIPK2 (RIPK2): 99 POC | Avg POC DYRK2 (DYRK2): 92.5 POC | Avg POC MAP4K2 (MAP4K2): 95.5 POC | Avg POC NLK (NLK): 107 POC | Avg POC ErbB4 (ErbB4): 108.5 POC | Avg POC PKD2 (PKD2): 106 POC | Avg POC SRPK1 (SRPK1): 116 POC | Avg POC MARK1 (MARK1): 97 POC | Avg POC HIPK2 (HIPK2): 102.5 POC | Avg POC NEK11 (NEK11): 102 POC | Avg POC Ros (Ros): 97.5 POC | Avg POC FAK2 (FAK2): 96 POC | Avg POC Lck (Lck): 75.5 POC | Avg POC ULK3 (ULK3): 93.5 POC | Avg POC PKCzeta (PKCzeta): 92.5 POC | Avg POC MSK1 (MSK1): 88.5 POC | Avg POC PRK2 (PRK2): 88.5 POC | Avg POC EGFR (EGFR): 107.5 POC | Avg POC CDK2/cyclinE (CDK2/cyclinE): 93 POC | Avg POC Hck (Hck): 67 POC | Avg POC PKCbetaII (PKCbetaII): 94 POC | Avg POC NEK7 (NEK7): 110 POC | Avg POC FGFR4 (FGFR4): 118 POC | Avg POC TrkA (TrkA): −1 POC | Avg POC NEK6 (NEK6): 92.5 POC | Avg POC IKKalpha (IKKalpha): 112.5 POC | Avg POC CAMK2g (CAMK2g): 101 POC | Avg POC MST3 (MST3): 99 POC | Avg POC mTOR (mTOR): 75 POC
